Results taken from patent EP1140925B1, “(3,4 DIHYDRO-2H-BENZO[1,4] OXAZINYL-METHYL)- 3-(1H-INDOL-3- YL)-ALKYL -AMINES” (Wyeth, priority 1999, dated 2000).
Where two headings read alike, the source gives them in different places.

What was measured:
serotonin transporter = target: T1, serotonin transporter (Rattus norvegicus, UniProt P31652); assay: Serotonin transporter affinity, 3H-paroxetine binding to frontal cortical membranes; design: species or system Sprague-Dawley rats; conditions: 3H-paroxetine 0.1 nM, head also allows % Inh. @.1 µM
T1 construct: frontal cortical membranes prepared from male Sprague-Dawley rats; from tissue; host or cells: frontal cortex membranes of male Sprague-Dawley rats
T1 sequence (P31652 whole entry): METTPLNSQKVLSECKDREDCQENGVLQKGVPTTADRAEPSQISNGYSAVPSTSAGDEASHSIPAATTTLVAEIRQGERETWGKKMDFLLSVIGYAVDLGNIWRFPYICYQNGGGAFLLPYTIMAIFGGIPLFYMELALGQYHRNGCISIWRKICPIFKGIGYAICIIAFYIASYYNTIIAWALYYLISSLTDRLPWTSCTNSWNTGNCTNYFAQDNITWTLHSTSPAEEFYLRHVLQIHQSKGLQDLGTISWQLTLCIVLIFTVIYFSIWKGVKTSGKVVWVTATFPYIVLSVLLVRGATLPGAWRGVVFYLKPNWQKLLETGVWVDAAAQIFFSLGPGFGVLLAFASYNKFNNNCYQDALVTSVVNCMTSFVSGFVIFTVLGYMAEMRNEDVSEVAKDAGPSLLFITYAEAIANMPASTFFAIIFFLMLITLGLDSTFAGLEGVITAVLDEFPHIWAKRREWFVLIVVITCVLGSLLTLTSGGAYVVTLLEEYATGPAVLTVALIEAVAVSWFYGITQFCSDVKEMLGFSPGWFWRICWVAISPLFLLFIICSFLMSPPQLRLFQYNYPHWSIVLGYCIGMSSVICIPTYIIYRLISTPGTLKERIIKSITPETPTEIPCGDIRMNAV
Description: Briefly, frontal cortical membranes prepared from male Sprague-Dawley rats were incubated with ^3H-paroxetine (0.1 nM) for 60 min at 25°C. All tubes also contained either vehicle, test compound (one to eight concentrations), or a saturating concentration of fluoxetine (10 µM) to define specific binding. All reactions were terminated by the addition of ice cold Tris buffer followed by rapid filtration using a Tom Tech filtration device to separate bound from free ^3H-paroxetine.

human 5-HT1A receptor = target: T2, human 5-HT1A receptor (Homo sapiens, UniProt P08908); assay: 5-HT1A receptor binding assay with [3H]8-OH-DPAT in CHO cell membranes; conditions: [3H]8-OH-DPAT 1.5 nM, membranes of CHO cells expressing human 5-HT1A receptor
T2 construct: expressed in transfected cells
T2 sequence (P08908 1-422): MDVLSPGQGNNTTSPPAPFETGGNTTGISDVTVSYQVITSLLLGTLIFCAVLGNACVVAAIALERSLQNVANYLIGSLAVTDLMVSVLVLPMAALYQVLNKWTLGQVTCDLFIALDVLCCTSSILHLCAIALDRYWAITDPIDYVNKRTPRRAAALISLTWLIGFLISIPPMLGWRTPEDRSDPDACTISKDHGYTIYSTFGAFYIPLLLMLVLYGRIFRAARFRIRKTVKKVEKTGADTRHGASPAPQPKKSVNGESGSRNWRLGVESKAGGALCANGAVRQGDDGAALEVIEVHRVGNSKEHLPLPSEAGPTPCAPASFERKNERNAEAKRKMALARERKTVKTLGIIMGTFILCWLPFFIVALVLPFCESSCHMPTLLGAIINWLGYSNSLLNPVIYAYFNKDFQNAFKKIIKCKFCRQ
Description: A stable Chinese hamster ovary cell line expressing the human 5-HT1A receptor subtype (5H-HT1A.CHO cells) was employed throughout this procedure. Cells were maintained in DMEM supplemented with 10% fetal calf serum, non-essential amino acids and penicillin/ streptomycin.
Cells were grown to 95-100% confluency as a monolayer before membranes were harvested for binding studies. Cells were gently scraped from the culture plates, transferred to centrifuge tubes, and washed twice by centrifugation (at 2000 rpm for 10 min., 4°C) in buffer (50 mM Tris; pH 7.5). The resulting pellets were aliquoted and stored at -80•C until needed. On the day of assay, the cells were thawed on ice, and resuspended in buffer. Studies were conducted using [^3H]8-OH-DPAT as the radioligand. The binding assay was performed in 96 well microtiter plates in a final total volume of 250 µL of buffer. […] Non-specific binding was determined in the presence of 10 µM 5HT. Saturation analysis was conducted by using [^3H]8-OH-DPAT at concentrations ranging from 0.3-30 nM. Following a 30 minute incubation at room temperature, the reaction was terminated by the addition of ice cold buffer and rapid filtration using a M-96 Brandel Cell Harvester through a GF/B filter presoaked for 30 minutes in 0.5% polyethyleneimine.

[1] = read-out: ST (Ki, nM, % Inh. @.1 µM)

Compound | Ki (serotonin transporter; ST (Ki, nM, % Inh. @.1 µM)) | Ki (serotonin transporter; [1]) | Ki (human 5-HT1A receptor)
Fc1ccc2[nH]cc(CCCNCC3CN(c4ccccc4)c4ccccc4O3)c2c1 (single isomer, unassigned; (+)) [Example 19] | 40 nM | – | –
Fc1ccc2[nH]cc(CCCNCC3CN(c4ccccc4)c4ccccc4O3)c2c1 (single isomer, unassigned; (-)) [Example 18] | 34 nM | – | –
c1ccc2c(c1)NCC(CNCCCc1c[nH]c3ccccc13)O2 (stereo not drawn) [Example 1] | – | 79 nM | 6.9 nM
CN1CC(CNCCCc2c[nH]c3ccccc23)Oc2ccccc21 (stereo not drawn) [Example 2] | 112 nM | – | 5.9 nM
c1ccc(CN2CC(CNCCCc3c[nH]c4ccccc34)Oc3ccccc32)cc1 (stereo not drawn) [Example 3, (4-Benzyl-3,4-dihydro-2H-benzo[1,4]oxazin-2ylmethyl)-[3-(1H-indo-3-yl)-propyl]-amine] | 21 nM | – | 7.8 nM
CN1CC(CNCCCc2c[nH]c3ccc(F)cc23)Oc2ccccc21 (stereo not drawn) [Example 5, [3-(5-Fluoro-1H-indol-3-yl)-propyl]-(4-methyl-3,4-dihydro-2H-benzo[1,4]oxazin-2-yl-methyl)-amine] | – | 5.7 nM | 8.5 nM
c1ccc(N2CC(CNCCCc3c[nH]c4ccccc34)Oc3ccccc32)cc1 (stereo not drawn) [Example 7, [3-(1H-Indol-3-yl)-propyl]-4-phenyl-3,(4-dihydro-2H-benzo[1,4]oxazin-2-yl-methyl)-amine] | – | – | 30.2 nM
CC(C)N1CC(CNCCCc2c[nH]c3ccc(F)cc23)Oc2ccccc21 (stereo not drawn) [Example 8, [3-(5-Fluoro-1H-indol-3-yl)-propyl]-(4-isopropyl-3,4-dihydro-2H-benzo[1,4]oxazin-2yl-methyl)-amine] | – | 25 nM | 2.8 nM
CC(C)CN1CC(CNCCCc2c[nH]c3ccc(F)cc23)Oc2ccccc21 (stereo not drawn) [Example 10] | 85 nM | – | 8.15 nM
Fc1ccc2[nH]cc(CCCNCC3CN(c4ccccc4)c4ccccc4O3)c2c1 (stereo not drawn) [Example 11, [3-(5-Fluoro-1H-indol-3-yl)-propyl]-(4-phenyl-3,4-dihydro-2H-benzo[1,4]oxazin-2-yl-methyl)-amine] | – | 43 nM | –
CCN1CC(CNCCCc2c[nH]c3ccc(F)cc23)Oc2ccccc21 (stereo not drawn) [Example 13, [3-(5-Fluoro-1H-indol-3-yl)-propyl]-(4-ethyl-3,4-dihydro-2H-benzo[1,4]oxazin-2-yl-methyl)-amine] | – | 15 nM | 15.3 nM
CCCN1CC(CNCCCc2c[nH]c3ccc(F)cc23)Oc2ccccc21 (stereo not drawn) [Example 14, [3-(5-Fluoro-1H-indol-3-yl)-propyl]-(4-propyl-3,4-dihydro-2H-benzo[1,4]oxazin-2-yl-methyl)-amine] | – | 26 nM | 16.8 nM
CN1CC(CNCCCc2c[nH]c3ccc(F)cc23)Oc2cc(Cl)ccc21 (stereo not drawn) [Example 15, (7-Chloro-4-methyl-3,4-dihydro-2H-benzo[1,4]oxazin-2ylmethyl)-[3-(5-fluoro-1H-indol-3-yl)-propyl]-amine] | – | 44 nM | 75.2 nM
Fc1ccc2[nH]cc(CCCNCC3CNc4ccccc4O3)c2c1 (stereo not drawn) [Example 16, (3,4-Dihydro-2H-benzo[1,4]oxazin-2ylmethyl)-[3-(5-fluoro-1H-indol-3-yl)-propyl]-amine] | – | 16 nM | 11 nM
COc1ccc2c(c1)OC(CNCCCc1c[nH]c3ccc(F)cc13)CN2 (stereo not drawn) [Example 17] | – | 15 nM | 103 nM
Fc1ccc2[nH]cc(CCCNCC3COc4ccccc4N3)c2c1 (stereo not drawn) [Example 20, (3,4-Dihydro-2H-benzo[1,4]oxazin-3-yl-methyl)-[3-(5-fluoro-1H-indol-3-yl)propyl]-amine] | – | – | 12.3 nM
